{"source": "the NIST ThermoML archive (doi:10.1021/je200825j)", "conditions": "Liquid mixture 1, Drop weight", "note": "± gives the expanded uncertainty stated by the source.", "data": [{"smiles": "CCCCCCCCCC", "note": "[decane] + O", "values": [{"measurement": "interfacial tension", "setting": "297.85 K, 110 kPa", "result": "51.96 ± 0.71", "unit": "mN/m"}, {"measurement": "interfacial tension", "setting": "323.35 K, 180 kPa", "result": "47.78 ± 0.52", "unit": "mN/m"}, {"measurement": "interfacial tension", "setting": "323.35 K, 22250 kPa", "result": "48.88 ± 0.71", "unit": "mN/m"}, {"measurement": "interfacial tension", "setting": "323.35 K, 39800 kPa", "result": "49.11 ± 0.65", "unit": "mN/m"}, {"measurement": "interfacial tension", "setting": "343.45 K, 150 kPa", "result": "46.28 ± 0.62", "unit": "mN/m"}, {"measurement": "interfacial tension", "setting": "343.45 K, 22850 kPa", "result": "47.68 ± 0.6", "unit": "mN/m"}, {"measurement": "interfacial tension", "setting": "343.45 K, 49020 kPa", "result": "48.39 ± 0.59", "unit": "mN/m"}, {"measurement": "interfacial tension", "setting": "374.25 K, 200 kPa", "result": "42.87 ± 0.62", "unit": "mN/m"}, {"measurement": "interfacial tension", "setting": "374.25 K, 23000 kPa", "result": "44.13 ± 0.64", "unit": "mN/m"}, {"measurement": "interfacial tension", "setting": "374.25 K, 47150 kPa", "result": "45.21 ± 1.5", "unit": "mN/m"}, {"measurement": "interfacial tension", "setting": "403.05 K, 400 kPa", "result": "39.59 ± 1.4", "unit": "mN/m"}, {"measurement": "interfacial tension", "setting": "403.05 K, 24500 kPa", "result": "40.33 ± 1.3", "unit": "mN/m"}, {"measurement": "interfacial tension", "setting": "403.05 K, 48000 kPa", "result": "40.9 ± 1.2", "unit": "mN/m"}, {"measurement": "interfacial tension", "setting": "442.85 K, 1150 kPa", "result": "32.36 ± 5.6", "unit": "mN/m"}, {"measurement": "interfacial tension", "setting": "442.85 K, 46400 kPa", "result": "36.89 ± 1.5", "unit": "mN/m"}]}]}
